Reference: publication PMC10313671, “Accelerating the prediction and discovery of peptide hydrogels with human-in-the-loop” (Nature Communications, 2023)
Where a SMILES comes first, the peptide text is derived from it.

Tests used:
[1] = Transmission electron microscope (negative staining) of peptide assemblies; details: for Morphology: TEM, negative staining with uranyl acetate, 120 kV; for morphology by TEM (in words): aqueous solution or hydrogel, negative staining
Description: We used the negative staining technique to observe the morphologies formed by peptides. A micropipette was used to load 10 μL of sample solution to a carbon-coated copper grid, and we used a piece of filter paper to remove the excess solution. After rinsing the grid with the deionized water, we used uranyl acetate to stain the sample for 1 minute and then rinsed the grid with deionized water again.

[2] = Peptide hydrogel formation, vial-inverting method; assay type: physicochemical; set-up: key to EXP / GELATION: 0: no hydrogel; 1: hydrogel; details: for State: ultrasonication, standing 48 h; for State / GELATION / hydrogel formation (in words): vial-inverting method; for Concentration: concentration at which the state was recorded: lowest of 30, 60, 90, 120 mM that gave a gel, 120 mM for non-gelating peptides; for GELATION: 1 = hydrogel, 0 = no hydrogel; for hydrogel formation (in words): representative hydrogels pH between 7.0 to 7.5
Summary of the method: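 Gelation judged by vial inversion, a non-flowing self-supporting sample counting as hydrogel, after 48 h standing. Peptide in water at 30 mM first, escalating to 60, 90 and 120 mM if no gel; pH set to 6.5–8.5 by stepwise 1 N NaOH, each step sonicated briefly.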

[3] = 120 mM peptide (highest tested) in ultrapure water, pH 6.5-8.5 (1 N NaOH), precipitate, sol, suspension = no gel
[4] = 30 mM peptide in ultrapure water, pH adjusted to 6.5-8.5 with 1 N NaOH, concentration raised 30/60/90/120 mM until gelation
[5] = 60 mM peptide in ultrapure water, pH 6.5-8.5 (1 N NaOH), no gel at 30 mM

SMILES	Morphology ([1]; line of the table gives 120 mM)	State [2, 3]	Concentration [2] [µM]	GELATION ([2]; peptide concentration 120 mM)	other results
C[C@@H](O)[C@H](N)C(=O)N[C@@H](CCCNC(=N)N)C(=O)N[C@@H](Cc1ccccc1)C(=O)N[C@@H](CO)C(=O)O [TRFS] (H-TRFS-OH)	particle	suspension	120000	–	morphology by TEM (in words) [1]: aggregates with different sizes
N[C@@H](Cc1c[nH]c2ccccc12)C(=O)N[C@@H](Cc1ccccc1)C(=O)N[C@@H](Cc1c[nH]cn1)C(=O)N1CCC[C@H]1C(=O)O [WFHP] (H-WFHP-OH)	aggregates	sol	120000	0	–
CC[C@H](C)[C@H](N)C(=O)N[C@H](C(=O)N[C@H](C(=O)N[C@H](C(=O)O)[C@@H](C)CC)[C@@H](C)CC)C(C)C [IVII] (H-IVII-OH)	–	–	30000	–	Morphology ([1]; line of the table gives 30 mM): sheet; State [2, 4]: gel; GELATION ([2]; peptide concentration 30 mM): 1
CC(C)C[C@H](NC(=O)[C@H](CO)NC(=O)[C@H](CC(C)C)NC(=O)[C@@H](N)CC(C)C)C(=O)O [LLSL] (H-LLSL-OH)	–	–	60000	–	Morphology ([1]; line of the table gives 60 mM): sheet; State [2, 5]: gel; GELATION ([2]; peptide concentration 60 mM): 1
CC[C@H](C)[C@H](N)C(=O)N[C@H](C(=O)N[C@H](C(=O)N[C@H](C(=O)O)[C@@H](C)CC)[C@@H](C)CC)[C@@H](C)CC [IIII] (H-IIII-OH)	–	–	30000	–	Morphology ([1]; line of the table gives 30 mM): needle; State [2, 4]: gel; GELATION ([2]; peptide concentration 30 mM): 1
CC(C)C[C@H](N)C(=O)N[C@H](C(=O)N1CCC[C@H]1C(=O)N[C@@H](Cc1ccccc1)C(=O)O)C(C)C [LVPF] (H-LVPF-OH)	aggregates	sol	120000	0	–
CC[C@H](C)[C@H](NC(=O)[C@@H](NC(=O)[C@@H](NC(=O)[C@@H](N)Cc1c[nH]c2ccccc12)C(C)C)[C@@H](C)CC)C(=O)O [WVII] (H-WVII-OH)	–	–	60000	–	Morphology ([1]; line of the table gives 60 mM): fibre; State [2, 5]: gel; GELATION ([2]; peptide concentration 60 mM): 1; hydrogel formation (in words) [2]: can form hydrogel
CC[C@H](C)[C@H](N)C(=O)N[C@@H](CCC(N)=O)C(=O)N[C@H](C(=O)N[C@H](C(=O)O)[C@@H](C)CC)[C@@H](C)CC [IQII] (H-IQII-OH)	–	–	60000	–	Morphology ([1]; line of the table gives 60 mM): hybrid(sphere+fibre); State [2, 5]: gel; GELATION ([2]; peptide concentration 60 mM): 1
CC(C)C[C@H](N)C(=O)N[C@H](C(=O)N[C@@H](Cc1c[nH]c2ccccc12)C(=O)N[C@@H](Cc1ccccc1)C(=O)O)[C@@H](C)O [LTWF] (H-LTWF-OH)	aggregates	sol	120000	0	–
C[C@H](NC(=O)[C@@H](N)Cc1c[nH]c2ccccc12)C(=O)N[C@@H](Cc1ccc(O)cc1)C(=O)N[C@@H](Cc1ccccc1)C(=O)O [WAYF] (H-WAYF-OH)	–	–	30000	–	Morphology ([1]; line of the table gives 30 mM): fibre; State [2, 4]: gel; GELATION ([2]; peptide concentration 30 mM): 1
CC[C@H](C)[C@H](N)C(=O)N[C@H](C(=O)N[C@H](C(=O)N[C@@H](CCCNC(=N)N)C(=O)O)[C@@H](C)CC)[C@@H](C)CC [IIIR] (H-IIIR-OH)	aggregates	suspension	120000	0	–
CC(C)C[C@H](NC(=O)[C@@H](N)Cc1c[nH]c2ccccc12)C(=O)N[C@H](C(=O)N[C@@H](Cc1c[nH]c2ccccc12)C(=O)O)C(C)C [WLVW] (H-WLVW-OH)	–	–	90000	–	Morphology ([1]; line of the table gives 90 mM): fibre; State ([2]; 90 mM peptide in ultrapure water, pH 6.5-8.5 (1 N NaOH), no gel at lower concentrations): gel; GELATION ([2]; peptide concentration 90 mM): 1
CC(C)[C@H](NC(=O)[C@@H](N)CC(N)=O)C(=O)N[C@@H](Cc1ccccc1)C(=O)N[C@@H](Cc1c[nH]cn1)C(=O)O [NVFH] (H-NVFH-OH)	aggregates	suspension	120000	0	–
CC[C@H](C)[C@H](NC(=O)[C@@H](NC(=O)[C@H](Cc1c[nH]cn1)NC(=O)[C@@H](N)CC(C)C)[C@@H](C)CC)C(=O)O [LHII] (H-LHII-OH)	aggregates	sol	120000	0	–
NCCCC[C@H](NC(=O)[C@@H](N)Cc1c[nH]c2ccccc12)C(=O)N[C@@H](Cc1ccccc1)C(=O)N[C@@H](Cc1ccccc1)C(=O)O [WKFF] (H-WKFF-OH)	–	–	60000	–	morphology by TEM (in words) [1]: entangled nanofibers; State [2, 5]: gel; GELATION ([2]; peptide concentration 60 mM): 1; hydrogel formation (in words) [2]: hydrogels
CC(C)C[C@H](NC(=O)[C@@H](N)C(C)C)C(=O)N[C@H](C(=O)N[C@H](C(=O)O)C(C)C)C(C)C [VLVV] (H-VLVV-OH)	sheet	gel	120000	1	–
CC(C)C[C@H](N)C(=O)N[C@H](C(=O)N[C@@H](Cc1ccccc1)C(=O)NCC(=O)O)C(C)C [LVFG] (H-LVFG-OH)	–	–	60000	–	Morphology ([1]; line of the table gives 60 mM): aggregates; State [2, 5]: gel; GELATION ([2]; peptide concentration 60 mM): 1
NC(=O)C[C@H](N)C(=O)N[C@@H](Cc1c[nH]c2ccccc12)C(=O)N[C@@H](Cc1c[nH]c2ccccc12)C(=O)N[C@@H](Cc1ccccc1)C(=O)O [NWWF] (H-NWWF-OH)	–	–	30000	–	Morphology ([1]; line of the table gives 30 mM): sphere; State [2, 4]: gel; GELATION ([2]; peptide concentration 30 mM): 1
CC(C)C[C@H](NC(=O)[C@H](CC(C)C)NC(=O)[C@H](Cc1ccccc1)NC(=O)[C@@H](N)CCCCN)C(=O)O [KFLL] (H-KFLL-OH)	aggregates	sol	120000	–	–
N[C@@H](CS)C(=O)N[C@@H](Cc1c[nH]c2ccccc12)C(=O)N[C@@H](Cc1ccccc1)C(=O)N[C@@H](CO)C(=O)O [CWFS] (H-CWFS-OH)	–	–	30000	–	Morphology ([1]; line of the table gives 30 mM): fibre; State [2, 4]: gel; GELATION ([2]; peptide concentration 30 mM): 1
CC(C)C[C@H](NC(=O)[C@H](C)NC(=O)[C@@H](N)C(C)C)C(=O)N[C@@H](CCC(=O)O)C(=O)O [VALE] (H-VALE-OH)	aggregates	suspension	120000	0	–
CC[C@H](C)[C@H](NC(=O)[C@H](CC(C)C)NC(=O)[C@@H](NC(=O)[C@@H](N)C(C)C)[C@@H](C)CC)C(=O)O [VILI] (H-VILI-OH)	–	–	60000	–	Morphology ([1]; line of the table gives 60 mM): hybrid(sheet+fibre); State [2, 5]: gel; GELATION ([2]; peptide concentration 60 mM): 1
CC[C@H](C)[C@H](NC(=O)[C@H](Cc1c[nH]c2ccccc12)NC(=O)[C@@H](N)C(C)C)C(=O)N[C@H](C(=O)O)[C@@H](C)O [VWIT] (H-VWIT-OH)	aggregates	precipitate	120000	0	–
CC(C)[C@H](NC(=O)[C@@H](NC(=O)[C@H](C)NC(=O)[C@@H](N)Cc1c[nH]c2ccccc12)C(C)C)C(=O)O [WAVV] (H-WAVV-OH)	–	–	60000	–	Morphology ([1]; line of the table gives 60 mM): fibre; State [2, 5]: gel; GELATION ([2]; peptide concentration 60 mM): 1
CC(C)C[C@H](NC(=O)[C@H](C)NC(=O)[C@@H](N)CC(C)C)C(=O)N[C@@H](CCCNC(=N)N)C(=O)O [LALR] (H-LALR-OH)	aggregates	suspension	120000	0	–
CC[C@H](C)[C@H](NC(=O)[C@@H](NC(=O)[C@@H](N)Cc1c[nH]c2ccccc12)[C@@H](C)CC)C(=O)N[C@@H](Cc1ccccc1)C(=O)O [WIIF] (H-WIIF-OH)	–	–	30000	–	Morphology ([1]; line of the table gives 30 mM): fibre; State [2, 4]: gel; GELATION ([2]; peptide concentration 30 mM): 1
